Assay results from ChEMBL document CHEMBL5303573, “Mapping human microbiome drug metabolism by gut bacteria and their genes” (Nature, 2019).

Tests used:
[1] = The drug is tested on Anaerotruncus colihominis strain: DSM17241 for biotransformation. The drug concentrations were measured before and after a 12-h incubation by liquid-chromatography-coupled mass spectrometry (LC–MS); conditions: 2 µM
[2] = bifidobacterium adolescentis, 12 h, 2 µM
Description: The drug is tested on Bifidobacterium adolescentis strain: ATCC 15703 for biotransformation. The drug concentrations were measured before and after a 12-h incubation by liquid-chromatography-coupled mass spectrometry (LC–MS)

[3] = limosilactobacillus reuteri cf48-3a, 12 h, 2 µM
Description: The drug is tested on Lactobacillus reuteri CF48-3A strain: BEI HM-102 for biotransformation. The drug concentrations were measured before and after a 12-h incubation by liquid-chromatography-coupled mass spectrometry (LC–MS)

[4] = bacteroides fragilis, 12 h, 2 µM
Description: The drug is tested on Bacteroides fragilis strain: NCTC 9343 for biotransformation. The drug concentrations were measured before and after a 12-h incubation by liquid-chromatography-coupled mass spectrometry (LC–MS)

[5] = segatella copri, 12 h, 2 µM
Description: The drug is tested on Prevotella copri strain: DSM18205 for biotransformation. The drug concentrations were measured before and after a 12-h incubation by liquid-chromatography-coupled mass spectrometry (LC–MS)

[6] = bacteroides thetaiotaomicron, 12 h, 2 µM
Description: The drug is tested on Bacteroides thetaiotaomicron strain: 7330 for biotransformation. The drug concentrations were measured before and after a 12-h incubation by liquid-chromatography-coupled mass spectrometry (LC–MS)

[7] = The drug is tested on Eubacterium hallii strain: DSM3353 for biotransformation. The drug concentrations were measured before and after a 12-h incubation by liquid-chromatography-coupled mass spectrometry (LC–MS); conditions: anaerobutyricum hallii, 2 µM
[8] = The drug is tested on Blautia luti strain: DSM14534 for biotransformation. The drug concentrations were measured before and after a 12-h incubation by liquid-chromatography-coupled mass spectrometry (LC–MS); assay type: ADME; parameters: dose 2 uM, timepoint 0 vs 12 hours; conditions: 2 µM
[9] = parabacteroides distasonis, 12 h, 2 µM
Description: The drug is tested on Parabacteroides distasonis strain: ATCC8503 for biotransformation. The drug concentrations were measured before and after a 12-h incubation by liquid-chromatography-coupled mass spectrometry (LC–MS)

[10] = roseburia intestinalis, 12 h, 2 µM
Description: The drug is tested on Roseburia intestinalis strain: L1-82 for biotransformation. The drug concentrations were measured before and after a 12-h incubation by liquid-chromatography-coupled mass spectrometry (LC–MS)

[11] = The drug is tested on Coprococcus comes strain: ATCC27758 for biotransformation. The drug concentrations were measured before and after a 12-h incubation by liquid-chromatography-coupled mass spectrometry (LC–MS); assay type: ADME; parameters: dose 2 uM, timepoint 0 vs 12 hours; conditions: 2 µM
[12] = The drug is tested on Enterococcus faecalis strain: V583 for biotransformation. The drug concentrations were measured before and after a 12-h incubation by liquid-chromatography-coupled mass spectrometry (LC–MS); conditions: 2 µM
[13] = The drug is tested on Ruminococcus lactaris strain: ATCC29176 for biotransformation. The drug concentrations were measured before and after a 12-h incubation by liquid-chromatography-coupled mass spectrometry (LC–MS); conditions: 2 µM
[14] = The drug is tested on Bifidobacterium breve strain: DSM20213 for biotransformation. The drug concentrations were measured before and after a 12-h incubation by liquid-chromatography-coupled mass spectrometry (LC–MS); conditions: 2 µM
[15] = The drug is tested on Bacteroides finegoldii strain: DSM17565 for biotransformation. The drug concentrations were measured before and after a 12-h incubation by liquid-chromatography-coupled mass spectrometry (LC–MS); conditions: 2 µM
[16] = The drug is tested on Edwardsiella tarda strain: ATCC23685 for biotransformation. The drug concentrations were measured before and after a 12-h incubation by liquid-chromatography-coupled mass spectrometry (LC–MS); conditions: 2 µM
[17] = The drug is tested on Bacteroides caccae strain: ATCC43185 for biotransformation. The drug concentrations were measured before and after a 12-h incubation by liquid-chromatography-coupled mass spectrometry (LC–MS); conditions: 2 µM
[18] = The drug is tested on Bifidobacterium ruminantium strain: fecal isolate for biotransformation. The drug concentrations were measured before and after a 12-h incubation by liquid-chromatography-coupled mass spectrometry (LC–MS); conditions: 2 µM
[19] = The drug is tested on Clostridium scindens strain: ATCC35704 for biotransformation. The drug concentrations were measured before and after a 12-h incubation by liquid-chromatography-coupled mass spectrometry (LC–MS); conditions: 2 µM
[20] = The drug is tested on Anaerococcus hydrogenalis strain: DSM7454 for biotransformation. The drug concentrations were measured before and after a 12-h incubation by liquid-chromatography-coupled mass spectrometry (LC–MS); conditions: 2 µM

Row | Compound | Bacterial Biotransformation [1] | Bacterial Biotransformation [2] | Bacterial Biotransformation [3] | Bacterial Biotransformation [4] | Bacterial Biotransformation [5] | Bacterial Biotransformation [6] | Bacterial Biotransformation [7] | Bacterial Biotransformation [8] | Bacterial Biotransformation [9] | Bacterial Biotransformation [10] | Bacterial Biotransformation [11] | Bacterial Biotransformation [12] | Bacterial Biotransformation [13] | Bacterial Biotransformation [14] | Bacterial Biotransformation [15] | Bacterial Biotransformation [16] | Bacterial Biotransformation [17] | Bacterial Biotransformation [18] | Bacterial Biotransformation [19] | Bacterial Biotransformation [20]
1 | C[C@]12C=CC(=O)C=C1CC[C@@H]1[C@@H]2C(=O)C[C@@]2(C)[C@H]1CC[C@]2(O)C(=O)CO [PREDNISONE] | Compound NOT metabolized | Compound NOT metabolized | Compound NOT metabolized | Compound NOT metabolized | Compound NOT metabolized | Compound NOT metabolized | Compound NOT metabolized | Compound NOT metabolized | Compound NOT metabolized | Compound NOT metabolized | Compound NOT metabolized | Compound NOT metabolized | Compound NOT metabolized | Compound NOT metabolized | Compound NOT metabolized | Compound NOT metabolized | Compound NOT metabolized | Compound NOT metabolized | Compound NOT metabolized | Compound NOT metabolized
2 | CCOc1ccccc1OCCN[C@H](C)Cc1ccc(OC)c(S(N)(=O)=O)c1.Cl [TAMSULOSIN HYDROCHLORIDE] | Compound NOT metabolized | Compound NOT metabolized | Compound NOT metabolized | Compound NOT metabolized | Compound NOT metabolized | Compound NOT metabolized | Compound NOT metabolized | Compound NOT metabolized | Compound NOT metabolized | Compound NOT metabolized | Compound NOT metabolized | Compound NOT metabolized | Compound NOT metabolized | Compound NOT metabolized | Compound NOT metabolized | Compound NOT metabolized | Compound NOT metabolized | Compound NOT metabolized | Compound NOT metabolized | Compound NOT metabolized
3 | CCOc1ccc(NC(C)=O)cc1 [PHENACETIN] | Compound NOT metabolized | Compound NOT metabolized | Compound NOT metabolized | Compound NOT metabolized | Compound NOT metabolized | Compound NOT metabolized | Compound NOT metabolized | Compound NOT metabolized | Compound NOT metabolized | Compound NOT metabolized | Compound NOT metabolized | Compound NOT metabolized | Compound NOT metabolized | Compound NOT metabolized | Compound NOT metabolized | Compound NOT metabolized | Compound NOT metabolized | Compound NOT metabolized | Compound NOT metabolized | Compound NOT metabolized
4 | CN(C/C=C/C#CC(C)(C)C)Cc1cccc2ccccc12 [TERBINAFINE] | Compound NOT metabolized | Compound NOT metabolized | Compound NOT metabolized | Compound NOT metabolized | Compound NOT metabolized | Compound NOT metabolized | Compound NOT metabolized | Compound NOT metabolized | Compound NOT metabolized | Compound NOT metabolized | Compound NOT metabolized | Compound NOT metabolized | Compound NOT metabolized | Compound NOT metabolized | Compound NOT metabolized | Compound NOT metabolized | Compound NOT metabolized | Compound NOT metabolized | Compound NOT metabolized | Compound NOT metabolized
5 | CC(C)NCC(O)c1ccc(NS(C)(=O)=O)cc1 (stereo not given) [SOTALOL] | Compound NOT metabolized | Compound NOT metabolized | Compound NOT metabolized | Compound NOT metabolized | Compound NOT metabolized | Compound metabolized | Compound NOT metabolized | Compound NOT metabolized | Compound NOT metabolized | Compound NOT metabolized | Compound NOT metabolized | Compound NOT metabolized | Compound NOT metabolized | Compound NOT metabolized | Compound NOT metabolized | Compound NOT metabolized | Compound NOT metabolized | Compound NOT metabolized | Compound NOT metabolized | Compound NOT metabolized
6 | C[C@@H](c1ncncc1F)[C@](O)(Cn1cncn1)c1ccc(F)cc1F [VORICONAZOLE] | Compound NOT metabolized | Compound NOT metabolized | Compound NOT metabolized | Compound NOT metabolized | Compound NOT metabolized | Compound metabolized | Compound NOT metabolized | Compound NOT metabolized | Compound metabolized | Compound NOT metabolized | Compound NOT metabolized | Compound NOT metabolized | Compound NOT metabolized | Compound NOT metabolized | Compound NOT metabolized | Compound NOT metabolized | Compound NOT metabolized | Compound NOT metabolized | Compound NOT metabolized | Compound NOT metabolized
7 | O=C(O)CCC(=O)O.O=C(O[C@H]1CN2CCC1CC2)N1CCc2ccccc2[C@@H]1c1ccccc1 [SOLIFENACIN SUCCINATE] | Compound NOT metabolized | Compound NOT metabolized | Compound NOT metabolized | Compound NOT metabolized | Compound NOT metabolized | Compound NOT metabolized | Compound NOT metabolized | Compound NOT metabolized | Compound NOT metabolized | Compound NOT metabolized | Compound NOT metabolized | Compound NOT metabolized | Compound NOT metabolized | Compound NOT metabolized | Compound NOT metabolized | Compound NOT metabolized | Compound NOT metabolized | Compound NOT metabolized | Compound NOT metabolized | Compound NOT metabolized
8 | COc1ccccc1OCC(O)CN1CCN(CC(=O)Nc2c(C)cccc2C)CC1 (stereo not given) [RANOLAZINE] | Compound NOT metabolized | Compound NOT metabolized | Compound NOT metabolized | Compound NOT metabolized | Compound NOT metabolized | Compound NOT metabolized | Compound NOT metabolized | Compound NOT metabolized | Compound NOT metabolized | Compound NOT metabolized | Compound NOT metabolized | Compound NOT metabolized | Compound NOT metabolized | Compound NOT metabolized | Compound NOT metabolized | Compound NOT metabolized | Compound NOT metabolized | Compound NOT metabolized | Compound NOT metabolized | Compound NOT metabolized
